Measured values published in patent US20090216187A1, “Method of Treatment of Vascular Diseases” (priority 2008, published 2009).
Where two headings read alike, the source gives them in different places.

What was measured:
[1] = renal elimination after incorporation (animal experimental data); assay type: in vivo
Description: To date one accidental Rhenium-188 incorporation caused by balloon rupture has been reported. The measured total body dose of the treated patient was 113 mGy (image-based analysis) and 88 mGy (biological analysis), respectively. Thus, the measured radiation exposures were within the theoretical calculated ranges. [Paeng J. C., Lee D. S., Kang W. J., Yang H. M., Chung J. K., Jeong J. M., Chae I. H., Lee M. M., Lee M. C. “Dosimetry in leakage of (188)Re-DTPA during intracoronary balloon brachytherapy” Eur. J. Nucl. Med. Mol. Imaging. 2003; 30(9): 1263-1265]. […] Therefore, Rhenium-188 will remain in the body for about 2 days after incorporation. In the body Rhenium-188 is mainly absorbed by the thyroid (0.0167 mGy/MBq) and the stomach (0.013 mGy/MBq) [Knapp F. F., Jr., Guhlke S., Beets A. L., Lin W. Y., Stabin M., Amols H., Weinberger J. “Endovascular beta irradiation for prevention of restenosis using solution radioisotopes: pharmacologic and dosimetric properties of rhenium-188 compounds.” Cardiovasc. Radiat. Med. 1999; 1(1): 86-97; Lin W. Y., Tsai S. C., Hsieh B. T. Lee T. W., Ting G., Wang S. J “Evaluation of three rhenium-188 candidates for intravascular radiation therapy with liquid-filled balloons to prevent restenosis” J. Nucl. Cardiol. 2000; 7(1): 37-42]. […]

[2] = patient after balloon rupture, cited from earlier work
[3] = cited from earlier work
[4] = renal elimination after incorporation; animal experimental data; cited from earlier work
[5] = subsequent oral administration of perchlorate after Rhenium-188 incorporation; cited from earlier work
[6] = complete accidental incorporation of a balloon filling of about 3 ml; cited from earlier work

[188Re] [Rhenium-188]
time remaining in the body after incorporation [1]: about 2 days | measured total body dose ([2]; biological analysis): 88 mGy | measured total body dose ([2]; image-based analysis): 113 mGy | absorbed dose ([3]; stomach): 0.013 mGy/MBq | absorbed dose ([3]; thyroid): 0.0167 mGy/MBq | elimination half-life [4]: about 7 h

[O-][Cl+3]([O-])([O-])O [perchlorate]
whole-body radiation reduced to [5]: 38%

Rhenium-188-DPTA
theoretical calculated total body dose [6]: approximately 63 mGy
